Active and inactive are the calls of the source.
Experiments:
[1] = target: T1, Ubiquitin-conjugating enzyme E2 N (Homo sapiens, UniProt P61088); assay type: functional;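 note: Dose-response confirmation in a TR-FRET assay detecting UBC13-driven polyubiquitin chain formation, inhibition measured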
T1 sequence (P61088 whole entry): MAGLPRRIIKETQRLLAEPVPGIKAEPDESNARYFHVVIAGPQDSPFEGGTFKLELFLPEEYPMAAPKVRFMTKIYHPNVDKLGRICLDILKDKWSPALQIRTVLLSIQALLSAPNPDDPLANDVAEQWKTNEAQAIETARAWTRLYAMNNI

[2] = target: Serine/threonine-protein phosphatase PP1-alpha catalytic subunit (Homo sapiens, UniProt P62136); experiment: PP1 phosphatase inhibitors, dose response, biochemical, fluorescence (AID 2394)
[3] = target: Protein-tyrosine kinase 2-beta (Homo sapiens, UniProt Q14289);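 note: potency of inhibitors of PYK2 kinase phosphorylation of poly-GT substrate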
Chain of Protein-tyrosine kinase 2-beta (Q14289 whole entry): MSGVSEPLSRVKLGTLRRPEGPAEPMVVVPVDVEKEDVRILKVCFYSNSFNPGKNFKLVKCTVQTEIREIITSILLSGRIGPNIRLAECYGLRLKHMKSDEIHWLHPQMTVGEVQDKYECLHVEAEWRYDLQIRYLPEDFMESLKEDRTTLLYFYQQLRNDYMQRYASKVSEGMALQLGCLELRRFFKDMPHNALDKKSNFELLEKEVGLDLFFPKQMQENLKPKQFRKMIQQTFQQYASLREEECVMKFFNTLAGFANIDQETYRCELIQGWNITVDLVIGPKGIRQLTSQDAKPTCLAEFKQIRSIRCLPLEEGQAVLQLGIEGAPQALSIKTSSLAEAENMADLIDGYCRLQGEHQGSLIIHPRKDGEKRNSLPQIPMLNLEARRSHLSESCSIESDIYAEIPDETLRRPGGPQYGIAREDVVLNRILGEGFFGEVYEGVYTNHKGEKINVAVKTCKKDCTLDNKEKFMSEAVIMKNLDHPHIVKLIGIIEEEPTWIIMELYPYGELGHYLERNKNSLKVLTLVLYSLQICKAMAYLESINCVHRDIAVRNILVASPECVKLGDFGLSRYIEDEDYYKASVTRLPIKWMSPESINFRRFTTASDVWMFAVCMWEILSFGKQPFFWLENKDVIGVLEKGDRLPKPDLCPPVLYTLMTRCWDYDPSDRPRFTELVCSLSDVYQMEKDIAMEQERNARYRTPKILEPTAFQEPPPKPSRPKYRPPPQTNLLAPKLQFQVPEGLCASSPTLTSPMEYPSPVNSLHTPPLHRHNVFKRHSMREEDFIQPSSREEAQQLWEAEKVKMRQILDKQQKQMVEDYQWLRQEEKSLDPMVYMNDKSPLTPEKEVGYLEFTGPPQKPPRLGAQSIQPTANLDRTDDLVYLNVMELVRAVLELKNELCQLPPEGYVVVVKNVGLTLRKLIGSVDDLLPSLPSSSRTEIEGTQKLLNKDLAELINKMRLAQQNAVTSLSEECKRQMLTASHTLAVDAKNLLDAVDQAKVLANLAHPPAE

[4] = target: T2, Sentrin-specific protease 7 (Homo sapiens, UniProt Q9BQF6); assay type: functional;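 note: Luminescence-based dose-response confirmation of ultra-high-throughput screening hits, measuring inhibition of SENP7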
T2 sequence (Q9BQF6 whole entry): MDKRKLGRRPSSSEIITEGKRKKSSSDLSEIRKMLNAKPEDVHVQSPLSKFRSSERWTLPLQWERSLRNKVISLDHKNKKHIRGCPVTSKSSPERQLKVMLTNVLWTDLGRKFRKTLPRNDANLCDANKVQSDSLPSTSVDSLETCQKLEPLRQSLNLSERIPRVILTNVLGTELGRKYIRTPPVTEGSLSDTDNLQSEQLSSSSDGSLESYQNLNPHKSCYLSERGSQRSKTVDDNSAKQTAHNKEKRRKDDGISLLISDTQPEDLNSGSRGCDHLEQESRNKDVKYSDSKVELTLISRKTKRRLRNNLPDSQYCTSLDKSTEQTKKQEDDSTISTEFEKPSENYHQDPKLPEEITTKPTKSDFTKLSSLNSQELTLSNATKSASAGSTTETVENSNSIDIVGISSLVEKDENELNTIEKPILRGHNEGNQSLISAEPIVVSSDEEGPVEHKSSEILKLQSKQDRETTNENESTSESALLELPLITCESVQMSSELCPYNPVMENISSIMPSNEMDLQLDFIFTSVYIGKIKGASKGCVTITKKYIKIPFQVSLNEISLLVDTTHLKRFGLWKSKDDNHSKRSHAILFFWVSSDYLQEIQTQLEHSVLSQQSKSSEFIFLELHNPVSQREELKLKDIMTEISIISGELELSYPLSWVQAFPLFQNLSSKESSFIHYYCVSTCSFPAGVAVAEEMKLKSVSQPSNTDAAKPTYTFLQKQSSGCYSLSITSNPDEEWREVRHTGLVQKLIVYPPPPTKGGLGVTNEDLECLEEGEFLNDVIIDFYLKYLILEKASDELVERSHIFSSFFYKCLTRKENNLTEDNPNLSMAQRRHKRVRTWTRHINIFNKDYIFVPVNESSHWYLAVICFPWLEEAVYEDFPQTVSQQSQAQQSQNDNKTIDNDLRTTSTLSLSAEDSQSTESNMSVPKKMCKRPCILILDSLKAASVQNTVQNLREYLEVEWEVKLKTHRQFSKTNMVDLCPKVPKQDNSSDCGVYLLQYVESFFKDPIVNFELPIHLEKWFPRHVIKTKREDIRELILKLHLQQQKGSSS

Bcl-2-related protein A1 = target: T3, Bcl-2-related protein A1 (Mus musculus, UniProt Q07440); experiment: Bfl-1 inhibitors blocking BH3 peptide binding, confirmation, biochemical, TR-FRET, mouse Bfl-1 (AID 621);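 note: TR-FRET binding of GST-Bfl-1 to FITC-labelled Bid peptide via terbium antibody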
T3 sequence (Q07440 whole entry): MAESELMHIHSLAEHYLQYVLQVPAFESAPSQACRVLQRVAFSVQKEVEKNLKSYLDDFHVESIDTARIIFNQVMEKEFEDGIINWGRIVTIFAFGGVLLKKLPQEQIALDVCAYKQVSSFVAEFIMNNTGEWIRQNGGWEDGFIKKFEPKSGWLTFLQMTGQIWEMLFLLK

SUMO E1/E2 = SUMO E1/E2 (Homo sapiens, UniProt P63279+Q9UBE0+Q9UBT2); experiment: SAR analysis of SUMOylation using HTRF in an in-Vitro dose response assay. [Related pubchem assays (depositor defined):AID2006, AID2011, AID2018, AID2069, AID2658]; assay type: functional
[5] = target: Dual specificity protein phosphatase 6 (Rattus norvegicus, UniProt Q64346); experiment: MKP-3 phosphatase inhibitors, primary screen, biochemical, rat enzyme, in vitro (AID 425)
Chain of Dual specificity protein phosphatase 6 (Q64346 whole entry): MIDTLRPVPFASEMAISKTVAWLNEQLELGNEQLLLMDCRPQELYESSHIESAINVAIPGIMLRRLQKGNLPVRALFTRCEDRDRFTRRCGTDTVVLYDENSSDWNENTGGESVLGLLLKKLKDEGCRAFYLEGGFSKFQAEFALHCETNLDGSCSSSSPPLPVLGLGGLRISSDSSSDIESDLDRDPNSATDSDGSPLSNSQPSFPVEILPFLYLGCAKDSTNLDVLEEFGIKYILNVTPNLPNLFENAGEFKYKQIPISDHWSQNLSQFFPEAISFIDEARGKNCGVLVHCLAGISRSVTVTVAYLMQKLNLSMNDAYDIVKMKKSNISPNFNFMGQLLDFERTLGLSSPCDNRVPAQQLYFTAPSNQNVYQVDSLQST

Nonstructural protein 1 = Nonstructural protein 1 (Influenza A virus, UniProt Q194T2); assay type: functional, Influenza A virus (A/California/07/2009(H1N1))
Chain of Nonstructural protein 1 (Q194T2 whole entry): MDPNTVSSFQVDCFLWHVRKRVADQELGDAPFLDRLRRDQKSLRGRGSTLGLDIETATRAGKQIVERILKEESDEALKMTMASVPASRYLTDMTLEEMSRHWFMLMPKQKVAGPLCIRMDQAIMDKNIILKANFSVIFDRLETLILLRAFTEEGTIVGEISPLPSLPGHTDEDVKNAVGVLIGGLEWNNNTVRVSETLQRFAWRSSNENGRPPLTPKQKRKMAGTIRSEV

HEK293 = experiment: optical interference in Abeta FP readout, dose response, artefact control for IDE activator project, biochemical, fluorescence polarization (AID 588442); assay type: functional, cell-based; settings: Homo sapiens
Beta-lactamase = Beta-lactamase (Pseudomonas aeruginosa, UniProt Q79MP6);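 note: biochemical dose-response test of metallo-beta-lactamase enzyme inhibition, read out by epi-absorbance; purified recombinant IMP-1 metallo-beta-lactamase with nitrocefin as substrate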
Chain of Beta-lactamase (Q79MP6 whole entry): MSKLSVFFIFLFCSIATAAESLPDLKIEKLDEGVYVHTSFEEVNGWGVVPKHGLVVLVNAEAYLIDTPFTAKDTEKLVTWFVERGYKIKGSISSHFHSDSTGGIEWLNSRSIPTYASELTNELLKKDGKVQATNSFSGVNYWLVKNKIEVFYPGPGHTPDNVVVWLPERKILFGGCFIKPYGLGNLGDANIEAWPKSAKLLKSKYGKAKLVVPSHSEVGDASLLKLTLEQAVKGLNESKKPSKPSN

[6] = target: Voltage-gated N-type calcium channel alpha-1B subunit/Amyloid beta A4 precursor protein-binding family A member 1 (Homo sapiens, UniProt Q00975+Q02410); assay type: protein assay
Chain of Voltage-gated N-type calcium channel alpha-1B subunit/Amyloid beta A4 precursor protein-binding family A member 1 (Q00975 whole entry): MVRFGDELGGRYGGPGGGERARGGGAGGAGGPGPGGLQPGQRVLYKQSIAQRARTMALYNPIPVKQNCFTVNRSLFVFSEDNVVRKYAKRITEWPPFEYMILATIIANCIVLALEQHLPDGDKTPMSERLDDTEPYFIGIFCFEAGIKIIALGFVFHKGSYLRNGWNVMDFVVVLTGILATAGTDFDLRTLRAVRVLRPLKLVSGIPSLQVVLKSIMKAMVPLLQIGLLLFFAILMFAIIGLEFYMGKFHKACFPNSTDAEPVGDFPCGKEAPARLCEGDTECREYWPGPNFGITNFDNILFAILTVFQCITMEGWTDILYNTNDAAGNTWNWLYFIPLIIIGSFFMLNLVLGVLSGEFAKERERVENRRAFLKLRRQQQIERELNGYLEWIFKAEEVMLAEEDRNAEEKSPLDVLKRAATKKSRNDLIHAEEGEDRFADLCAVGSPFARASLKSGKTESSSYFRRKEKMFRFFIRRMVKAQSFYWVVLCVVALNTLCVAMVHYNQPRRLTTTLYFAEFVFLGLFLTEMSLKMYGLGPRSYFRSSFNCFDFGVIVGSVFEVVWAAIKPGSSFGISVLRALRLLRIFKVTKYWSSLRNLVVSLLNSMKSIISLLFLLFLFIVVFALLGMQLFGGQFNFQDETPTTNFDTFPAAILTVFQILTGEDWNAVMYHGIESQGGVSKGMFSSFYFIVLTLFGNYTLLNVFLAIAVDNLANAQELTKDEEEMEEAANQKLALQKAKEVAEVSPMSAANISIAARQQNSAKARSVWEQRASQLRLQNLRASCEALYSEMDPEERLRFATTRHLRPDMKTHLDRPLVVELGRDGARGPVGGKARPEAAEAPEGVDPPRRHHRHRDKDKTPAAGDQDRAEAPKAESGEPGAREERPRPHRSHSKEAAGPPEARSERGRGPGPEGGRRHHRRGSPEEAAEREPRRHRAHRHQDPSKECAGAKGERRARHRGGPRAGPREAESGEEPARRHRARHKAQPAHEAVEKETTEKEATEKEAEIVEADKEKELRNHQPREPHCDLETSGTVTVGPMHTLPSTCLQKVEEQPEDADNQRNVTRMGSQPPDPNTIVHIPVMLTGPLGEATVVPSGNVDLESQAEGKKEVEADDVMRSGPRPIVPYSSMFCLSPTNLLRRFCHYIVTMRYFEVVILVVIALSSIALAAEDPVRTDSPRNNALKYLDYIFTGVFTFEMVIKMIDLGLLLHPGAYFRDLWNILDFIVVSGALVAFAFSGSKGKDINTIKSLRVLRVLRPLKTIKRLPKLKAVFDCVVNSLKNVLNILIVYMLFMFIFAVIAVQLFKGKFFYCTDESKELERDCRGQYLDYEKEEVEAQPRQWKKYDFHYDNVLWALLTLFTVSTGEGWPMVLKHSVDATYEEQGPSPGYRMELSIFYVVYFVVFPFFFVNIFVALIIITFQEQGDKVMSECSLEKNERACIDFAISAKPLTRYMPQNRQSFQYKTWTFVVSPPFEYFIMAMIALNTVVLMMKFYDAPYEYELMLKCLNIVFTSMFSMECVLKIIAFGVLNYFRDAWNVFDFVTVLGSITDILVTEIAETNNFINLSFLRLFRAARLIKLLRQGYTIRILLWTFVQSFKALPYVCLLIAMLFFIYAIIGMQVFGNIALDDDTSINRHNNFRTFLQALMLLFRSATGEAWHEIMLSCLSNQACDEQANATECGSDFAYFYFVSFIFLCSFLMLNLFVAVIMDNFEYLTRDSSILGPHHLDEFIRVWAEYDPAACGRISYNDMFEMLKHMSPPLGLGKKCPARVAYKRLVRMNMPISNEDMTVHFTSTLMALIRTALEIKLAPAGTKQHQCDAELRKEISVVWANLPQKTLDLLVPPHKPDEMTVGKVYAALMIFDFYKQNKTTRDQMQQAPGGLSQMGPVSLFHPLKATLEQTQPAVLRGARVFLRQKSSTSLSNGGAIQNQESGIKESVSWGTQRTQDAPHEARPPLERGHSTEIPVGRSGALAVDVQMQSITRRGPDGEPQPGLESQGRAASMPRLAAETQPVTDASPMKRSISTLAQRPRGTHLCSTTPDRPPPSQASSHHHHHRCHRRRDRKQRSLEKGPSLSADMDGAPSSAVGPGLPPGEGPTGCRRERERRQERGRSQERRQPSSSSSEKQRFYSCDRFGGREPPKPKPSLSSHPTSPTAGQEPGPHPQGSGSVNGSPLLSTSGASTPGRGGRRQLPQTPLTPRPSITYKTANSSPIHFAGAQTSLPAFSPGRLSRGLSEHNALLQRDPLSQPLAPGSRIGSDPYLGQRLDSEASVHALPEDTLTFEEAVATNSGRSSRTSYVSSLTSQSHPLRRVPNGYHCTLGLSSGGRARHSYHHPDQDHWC
Chain of Voltage-gated N-type calcium channel alpha-1B subunit/Amyloid beta A4 precursor protein-binding family A member 1 (Q02410 whole entry): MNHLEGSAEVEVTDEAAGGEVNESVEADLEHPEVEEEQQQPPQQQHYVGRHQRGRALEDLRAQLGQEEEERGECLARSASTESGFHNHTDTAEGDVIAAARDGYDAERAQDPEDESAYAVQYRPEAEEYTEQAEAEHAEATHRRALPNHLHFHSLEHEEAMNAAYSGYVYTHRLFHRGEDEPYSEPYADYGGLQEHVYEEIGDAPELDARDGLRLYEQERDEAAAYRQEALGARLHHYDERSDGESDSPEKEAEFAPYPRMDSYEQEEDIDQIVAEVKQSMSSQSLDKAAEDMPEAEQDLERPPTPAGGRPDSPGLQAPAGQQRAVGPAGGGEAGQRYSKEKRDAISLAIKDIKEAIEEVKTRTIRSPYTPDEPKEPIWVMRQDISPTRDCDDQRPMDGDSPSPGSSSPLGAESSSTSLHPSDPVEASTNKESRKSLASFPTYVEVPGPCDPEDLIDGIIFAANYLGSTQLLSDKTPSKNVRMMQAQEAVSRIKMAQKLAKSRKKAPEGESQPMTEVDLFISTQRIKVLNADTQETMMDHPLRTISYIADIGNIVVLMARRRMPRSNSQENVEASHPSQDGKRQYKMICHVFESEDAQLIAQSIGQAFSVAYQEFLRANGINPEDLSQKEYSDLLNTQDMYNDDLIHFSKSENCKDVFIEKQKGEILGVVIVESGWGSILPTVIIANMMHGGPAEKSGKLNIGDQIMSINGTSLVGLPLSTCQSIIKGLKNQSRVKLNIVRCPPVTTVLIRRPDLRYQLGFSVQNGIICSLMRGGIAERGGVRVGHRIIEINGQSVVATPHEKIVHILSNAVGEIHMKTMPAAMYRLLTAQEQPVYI

Caspase-6 = target: T4, Caspase-6 (Homo sapiens, UniProt P55212); experiment: human caspase-6 inhibitors, dose response, biochemical, VEID-R110 fluorescence, cherry-pick (AID 720632)
T4 sequence (P55212 whole entry): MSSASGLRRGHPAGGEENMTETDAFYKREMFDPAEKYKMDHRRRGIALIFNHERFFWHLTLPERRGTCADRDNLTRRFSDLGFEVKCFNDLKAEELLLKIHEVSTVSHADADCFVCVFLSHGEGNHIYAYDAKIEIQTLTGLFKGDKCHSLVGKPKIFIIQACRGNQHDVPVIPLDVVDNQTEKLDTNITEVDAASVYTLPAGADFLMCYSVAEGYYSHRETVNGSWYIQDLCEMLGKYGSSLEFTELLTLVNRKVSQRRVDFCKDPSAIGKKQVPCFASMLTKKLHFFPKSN

[7] = target: Alkaline phosphatase, tissue-nonspecific isozyme (Homo sapiens, UniProt P05186)

CCCCCCCCCCOC(=O)C[n+]1c(COc2ccccc2C)n(C)c2ccccc21
IC50 [1]: > 20 µM (inactive)

Oc1nc(Nc2ccccc2)cc2ccccc12
IC50 [2]: > 67 µM (not active)
IC50 [3]: > 69.5 µM (not active)
IC50 [4]: 0.75 µM (active)
IC50 (Bcl-2-related protein A1): > 100 µM (not active)
IC50 (SUMO E1/E2): 6.32 µM (active)
IC50 [5]: > 100 µM (not active)

COc1cc(OC)c(-c2c3cc(O)c(=O)cc-3oc3cc(O)c(O)cc23)cc1OC
IC50 (Nonstructural protein 1): 41.7 µM (active)
EC50 (HEK293): > 6.21 µM (active)
IC50 (Beta-lactamase): 5.62 µM (active)
IC50 [6]: > 50 µM (inactive)
AC50 (Caspase-6): 0.0367 µM (active)
EC50 [7]: > 100 µM (not active)
